Measurements as given in article PMC6017224, “Phytoestrogenic Activity of Blackcurrant Anthocyanins Is Partially Mediated through Estrogen Receptor Beta” (Molecules : A Journal of Synthetic Chemistry and Natural …, 2017).

molecular target: T1, human ERβ (Homo sapiens, UniProt Q92731); assay: PolarScreen ERβ competitive binding assay (fluorescence polarization); settings: recombinant human ERβ 23 nM, 4.5 nM Fluormone ES2 Green, 2 h; approximate IC50; read-out: IC50 (displacement of Fluormone ES2 Green from ERβ)
T1 construct: purchased Life Technologies
T1 sequence (Q92731 whole entry): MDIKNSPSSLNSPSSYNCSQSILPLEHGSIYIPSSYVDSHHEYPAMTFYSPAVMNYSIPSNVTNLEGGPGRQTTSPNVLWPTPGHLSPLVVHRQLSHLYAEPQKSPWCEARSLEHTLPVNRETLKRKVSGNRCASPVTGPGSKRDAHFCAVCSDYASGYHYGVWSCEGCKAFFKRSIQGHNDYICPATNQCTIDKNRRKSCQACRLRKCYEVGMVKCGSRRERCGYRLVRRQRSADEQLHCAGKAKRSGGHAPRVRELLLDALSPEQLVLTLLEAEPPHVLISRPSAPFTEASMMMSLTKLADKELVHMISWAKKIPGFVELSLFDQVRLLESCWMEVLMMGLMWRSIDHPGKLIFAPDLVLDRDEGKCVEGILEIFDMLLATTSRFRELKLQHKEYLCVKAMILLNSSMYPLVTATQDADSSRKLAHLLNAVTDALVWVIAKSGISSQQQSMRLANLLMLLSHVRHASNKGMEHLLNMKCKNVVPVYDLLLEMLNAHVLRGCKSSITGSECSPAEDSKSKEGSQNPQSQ

Question: `OC[C@H]1O[C@@H](Oc2cc3c(O)cc(O)cc3[o+]c2-c2ccc(O)c(O)c2)[C@H](O)[C@@H](O)[C@@H]1O` [C3G, cyanidin-3-glucoside] was tested. Which IC50 did it give?
Answer: 2800 nM

Question: With `OC[C@H]1O[C@@H](Oc2cc3c(O)cc(O)cc3[o+]c2-c2cc(O)c(O)c(O)c2)[C@H](O)[C@@H](O)[C@@H]1O` [D3G, delphinidin-3-glucoside] as the compound, how does the IC50 read?
Answer: 9700 nM

Question: Which IC50 does the source give for `C[C@@H]1O[C@@H](OC[C@H]2O[C@@H](Oc3cc4c(O)cc(O)cc4[o+]c3-c3cc(O)c(O)c(O)c3)[C@H](O)[C@@H](O)[C@@H]2O)[C@H](O)[C@H](O)[C@H]1O` [D3R, delphinidin-3-rutinoside] here?
Answer: 2300 nM
